Data: patent EP3154958B1, “PHOSPHATIDYLINOSITOL 3-KINASE INHIBITORS” (Gilead Sciences, Inc., priority 2014, dated 2015)

What was measured:
Type in all cases: biochemical
PI3Kδ = molecular target: T1, PI3Kδ (Homo sapiens, UniProt O00329); assay: TR-FRET enzymatic activity assay, PI3Kδ; details: recombinant heterodimeric PI3Kδ 25-50 pM, 2× Km ATP, 30 minutes at 25°C
T1 construct: made in house
How it was run: (§1)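 Read-out is TR-FRET. The assay scores enzymatic activity of the individual PI3K isoforms in the presence of compound.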

PI3Kγ = molecular target: T2, PI3Kγ (Homo sapiens, UniProt P48736); assay: TR-FRET enzymatic activity assay, PI3Kγ; details: recombinant heterodimeric PI3Kγ 2 nM, 2× Km ATP, 30 minutes at 25°C
T2 construct: made in house
T2 sequence (P48736 whole entry): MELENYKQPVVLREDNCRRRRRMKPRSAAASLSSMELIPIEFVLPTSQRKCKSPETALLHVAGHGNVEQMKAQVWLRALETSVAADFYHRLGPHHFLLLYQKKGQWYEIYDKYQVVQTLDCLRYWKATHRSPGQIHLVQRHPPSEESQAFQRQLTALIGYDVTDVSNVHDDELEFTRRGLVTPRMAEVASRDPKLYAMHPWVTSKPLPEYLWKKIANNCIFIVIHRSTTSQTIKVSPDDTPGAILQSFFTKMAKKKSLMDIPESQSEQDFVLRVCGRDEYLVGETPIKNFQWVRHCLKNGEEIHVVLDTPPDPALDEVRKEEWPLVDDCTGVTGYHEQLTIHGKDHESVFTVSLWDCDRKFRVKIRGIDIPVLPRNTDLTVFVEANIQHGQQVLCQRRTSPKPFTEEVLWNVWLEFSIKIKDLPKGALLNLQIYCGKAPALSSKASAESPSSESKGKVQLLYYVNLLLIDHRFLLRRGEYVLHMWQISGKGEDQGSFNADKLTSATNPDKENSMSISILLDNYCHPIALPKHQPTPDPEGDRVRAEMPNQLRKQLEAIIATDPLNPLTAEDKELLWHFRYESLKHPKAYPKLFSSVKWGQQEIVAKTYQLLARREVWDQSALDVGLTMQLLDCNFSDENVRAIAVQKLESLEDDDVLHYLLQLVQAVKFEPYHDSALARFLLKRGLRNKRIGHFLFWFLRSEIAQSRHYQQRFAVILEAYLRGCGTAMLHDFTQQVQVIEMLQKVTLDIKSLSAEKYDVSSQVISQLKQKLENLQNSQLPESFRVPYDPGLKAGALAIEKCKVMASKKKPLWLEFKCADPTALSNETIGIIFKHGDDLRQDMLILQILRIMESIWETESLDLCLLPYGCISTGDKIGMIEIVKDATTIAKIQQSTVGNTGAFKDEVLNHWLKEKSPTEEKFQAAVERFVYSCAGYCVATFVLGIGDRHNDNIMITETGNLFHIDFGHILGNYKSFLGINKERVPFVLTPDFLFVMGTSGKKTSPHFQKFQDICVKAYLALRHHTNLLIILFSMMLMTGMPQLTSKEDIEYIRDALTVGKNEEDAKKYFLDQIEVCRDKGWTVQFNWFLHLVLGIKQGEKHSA
T2 sequence (Q8WYR1 whole entry partner): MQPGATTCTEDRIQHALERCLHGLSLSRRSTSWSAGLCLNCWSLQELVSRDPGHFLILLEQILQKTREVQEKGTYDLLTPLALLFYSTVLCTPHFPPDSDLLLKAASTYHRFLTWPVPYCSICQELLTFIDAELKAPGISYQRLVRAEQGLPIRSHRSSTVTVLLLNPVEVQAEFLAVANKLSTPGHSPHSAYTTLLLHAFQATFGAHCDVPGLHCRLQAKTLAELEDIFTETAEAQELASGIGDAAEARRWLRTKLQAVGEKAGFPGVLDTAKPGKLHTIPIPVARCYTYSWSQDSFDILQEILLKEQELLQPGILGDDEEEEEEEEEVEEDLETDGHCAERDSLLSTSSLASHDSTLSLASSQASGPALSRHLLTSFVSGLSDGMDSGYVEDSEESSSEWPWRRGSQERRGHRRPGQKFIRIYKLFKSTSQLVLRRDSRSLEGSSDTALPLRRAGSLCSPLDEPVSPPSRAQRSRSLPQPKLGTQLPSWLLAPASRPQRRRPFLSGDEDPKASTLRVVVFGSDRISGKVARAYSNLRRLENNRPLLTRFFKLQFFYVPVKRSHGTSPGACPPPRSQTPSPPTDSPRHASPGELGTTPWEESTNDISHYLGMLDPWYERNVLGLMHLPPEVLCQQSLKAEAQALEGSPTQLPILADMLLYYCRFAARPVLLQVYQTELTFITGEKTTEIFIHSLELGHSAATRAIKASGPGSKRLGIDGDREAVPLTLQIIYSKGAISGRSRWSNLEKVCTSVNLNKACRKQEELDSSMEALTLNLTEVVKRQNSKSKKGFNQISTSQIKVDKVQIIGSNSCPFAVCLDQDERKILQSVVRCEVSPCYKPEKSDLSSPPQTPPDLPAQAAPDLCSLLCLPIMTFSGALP
How it was run: as §1

PI3Kβ = molecular target: T3, PI3Kβ (Homo sapiens, UniProt P42338); assay: TR-FRET enzymatic activity assay, PI3Kβ; details: for IC50: recombinant heterodimeric PI3Kβ 25-50 pM, 2× Km ATP, 30 minutes at 25°C; for PI3Kγ/PI3Kβ ratio: ratio of IC50 values
T3 construct: made in house
T3 sequence (P42338 whole entry): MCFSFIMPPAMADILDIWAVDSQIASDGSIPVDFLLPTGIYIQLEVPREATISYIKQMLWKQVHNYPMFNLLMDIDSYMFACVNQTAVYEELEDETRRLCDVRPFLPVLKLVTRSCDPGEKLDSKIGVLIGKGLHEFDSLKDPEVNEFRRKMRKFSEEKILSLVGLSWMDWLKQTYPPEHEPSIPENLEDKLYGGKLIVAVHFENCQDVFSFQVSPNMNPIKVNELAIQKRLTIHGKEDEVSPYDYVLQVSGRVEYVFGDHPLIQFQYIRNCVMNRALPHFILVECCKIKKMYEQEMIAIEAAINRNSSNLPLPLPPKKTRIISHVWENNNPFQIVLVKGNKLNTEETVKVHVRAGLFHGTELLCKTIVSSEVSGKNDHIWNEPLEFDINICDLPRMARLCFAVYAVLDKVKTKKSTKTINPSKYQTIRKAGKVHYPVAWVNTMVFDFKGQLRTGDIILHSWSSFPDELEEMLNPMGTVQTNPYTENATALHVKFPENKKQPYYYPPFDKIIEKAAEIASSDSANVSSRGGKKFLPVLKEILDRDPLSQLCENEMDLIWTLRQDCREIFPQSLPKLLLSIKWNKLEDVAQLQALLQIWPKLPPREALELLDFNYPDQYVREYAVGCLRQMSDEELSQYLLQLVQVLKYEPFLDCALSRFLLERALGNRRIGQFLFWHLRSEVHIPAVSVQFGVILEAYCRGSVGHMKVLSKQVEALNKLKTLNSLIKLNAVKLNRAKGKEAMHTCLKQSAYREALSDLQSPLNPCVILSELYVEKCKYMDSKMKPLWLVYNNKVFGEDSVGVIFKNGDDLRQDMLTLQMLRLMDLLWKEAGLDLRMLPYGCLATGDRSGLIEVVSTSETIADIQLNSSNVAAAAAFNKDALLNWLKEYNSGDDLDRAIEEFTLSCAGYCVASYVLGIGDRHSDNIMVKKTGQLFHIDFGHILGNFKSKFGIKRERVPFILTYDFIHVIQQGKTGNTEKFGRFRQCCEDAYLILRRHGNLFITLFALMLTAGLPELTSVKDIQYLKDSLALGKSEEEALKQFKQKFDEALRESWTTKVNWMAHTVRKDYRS
T3 sequence (P27986 whole entry partner): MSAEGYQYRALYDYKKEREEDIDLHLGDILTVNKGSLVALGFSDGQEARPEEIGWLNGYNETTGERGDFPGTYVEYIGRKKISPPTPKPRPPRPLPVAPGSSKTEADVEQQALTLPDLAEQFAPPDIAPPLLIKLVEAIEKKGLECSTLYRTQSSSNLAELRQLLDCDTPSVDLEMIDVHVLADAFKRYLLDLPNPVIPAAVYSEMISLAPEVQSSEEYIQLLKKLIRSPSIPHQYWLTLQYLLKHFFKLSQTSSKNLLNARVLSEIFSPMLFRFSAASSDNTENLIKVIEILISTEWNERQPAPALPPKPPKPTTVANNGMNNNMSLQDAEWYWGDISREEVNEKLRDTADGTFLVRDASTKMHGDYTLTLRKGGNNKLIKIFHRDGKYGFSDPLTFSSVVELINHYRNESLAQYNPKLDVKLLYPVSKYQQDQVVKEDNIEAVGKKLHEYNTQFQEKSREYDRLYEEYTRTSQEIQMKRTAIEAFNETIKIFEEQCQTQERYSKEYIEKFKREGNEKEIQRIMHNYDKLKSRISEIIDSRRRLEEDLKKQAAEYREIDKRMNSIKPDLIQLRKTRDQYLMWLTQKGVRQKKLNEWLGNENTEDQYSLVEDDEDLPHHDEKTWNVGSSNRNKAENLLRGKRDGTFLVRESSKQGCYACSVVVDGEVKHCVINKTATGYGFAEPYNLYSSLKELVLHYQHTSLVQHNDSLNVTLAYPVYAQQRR
How it was run: as §1

T1 sequence (O00329 whole entry): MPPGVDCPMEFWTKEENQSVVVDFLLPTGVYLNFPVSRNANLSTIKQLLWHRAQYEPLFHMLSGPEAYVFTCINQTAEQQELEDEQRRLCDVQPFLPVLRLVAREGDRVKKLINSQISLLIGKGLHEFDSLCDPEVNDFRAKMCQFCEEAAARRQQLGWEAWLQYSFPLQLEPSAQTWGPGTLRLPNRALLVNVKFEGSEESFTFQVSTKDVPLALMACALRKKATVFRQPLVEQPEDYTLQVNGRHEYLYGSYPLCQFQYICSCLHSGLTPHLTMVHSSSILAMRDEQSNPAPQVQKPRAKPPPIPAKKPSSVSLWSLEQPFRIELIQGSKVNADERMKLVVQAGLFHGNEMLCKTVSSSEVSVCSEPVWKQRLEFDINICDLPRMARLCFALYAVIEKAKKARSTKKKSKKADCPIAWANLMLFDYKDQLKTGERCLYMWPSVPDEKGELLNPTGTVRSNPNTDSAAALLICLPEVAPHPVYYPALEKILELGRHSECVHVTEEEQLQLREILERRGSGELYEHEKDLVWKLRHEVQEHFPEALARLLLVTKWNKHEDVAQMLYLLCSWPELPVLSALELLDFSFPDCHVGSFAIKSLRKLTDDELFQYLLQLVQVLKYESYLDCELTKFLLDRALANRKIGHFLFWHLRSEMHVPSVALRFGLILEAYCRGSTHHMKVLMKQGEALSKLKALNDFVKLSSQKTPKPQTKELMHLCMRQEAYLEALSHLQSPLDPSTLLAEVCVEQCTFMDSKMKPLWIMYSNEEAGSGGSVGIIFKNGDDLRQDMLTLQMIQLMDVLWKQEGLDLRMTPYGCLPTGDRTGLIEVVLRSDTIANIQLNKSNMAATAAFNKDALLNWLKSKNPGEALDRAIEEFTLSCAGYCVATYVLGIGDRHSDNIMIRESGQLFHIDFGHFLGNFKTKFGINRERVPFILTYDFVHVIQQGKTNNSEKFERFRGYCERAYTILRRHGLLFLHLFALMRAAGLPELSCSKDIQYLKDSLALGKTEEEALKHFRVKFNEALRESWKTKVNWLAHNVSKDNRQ
T1 sequence (P27986 whole entry partner): as the sequence (P27986 whole entry partner) above

Row | Structure (SMILES) | IC50 (PI3Kδ) | IC50 (PI3Kγ) | IC50 (PI3Kβ) | PI3Kγ/PI3Kβ ratio (PI3Kβ) | PI3Kγ/PI3Kβ ratio (PI3Kβ; as stated in b147)
1 | C[C@H](Nc1nc(N)nc(N)c1C#N)c1nc2cccc(Cl)c2c(=O)n1C1CCN(CC(F)(F)F)C1 (stereo partly drawn) [Compound 119, 2,4-diamino-6-(((1S)-1-(5-chloro-4-oxo-3-(1-(2,2,2-trifluoroethyl)pyrrolidin-3-yl)-3,4-dihydroquinazolin-2-yl)ethyl)amino)pyrimidine-5-carbonitrile] | 14 nM | 2900 nM | 360 nM | – | –
2 | C[C@H](Nc1ncnc2[nH]cnc12)c1nc2cccc(Cl)c2c(=O)n1C1CCN(C)CC1 [Compound 120, (S)-2-(1-((9H-purin-6-yl)amino)ethyl)-5-chloro-3-(1-methylpiperidin-4-yl)quinazolin-4(3H)-one] | 14 nM | > 10000 nM | 1200 nM | – | –
3 | N#Cc1c(N)nc(N)nc1N[C@H](c1nc2cccc(Cl)c2c(=O)n1N1CCOCC1)C1CC1 [Compound 121, (S)-2,4-diamino-6-(((5-chloro-3-morpholino-4-oxo-3,4-dihydroquinazolin-2-yl)(cyclopropyl)methyl)amino)pyrimidine-5-carbonitrile] | 2 nM | 190 nM | 134 nM | – | –
4 | Nc1nc(N)c(Cl)c(N[C@H](c2nc3cccc(Cl)c3c(=O)n2N2CCOCC2)C2CC2)n1 [Compound 122, (S)-5-chloro-2-(cyclopropyl((2,6-diamino-5-chloropyrimidin-4-yl)amino)methyl)-3-morpholinoquinazolin-4(3H)-one] | 19 nM | 2200 nM | 1800 nM | – | –
5 | C[C@H](Nc1nc(N)nc(N)c1C#N)c1nc2cccc(Cl)c2c(=O)n1N1CCN(C)CC1 [Compound 125, (S)-2,4-diamino-6-((1-(5-chloro-3-(4-methylpiperazin-1-yl)-4-oxo-3,4-dihydroquinazolin-2-yl)ethyl)amino)pyrimidine-5-carbonitrile] | 6 nM | 350 nM | 5 nM | – | –
6 | C[C@H](Nc1nc(N)nc(N)c1C#N)c1nc2c(Cl)cc(F)cc2c(=O)n1N1CCNCC1 [Compound 126, (S)-2,4-diamino-6-((1-(8-chloro-6-fluoro-4-oxo-3-(piperazin-1-yl)-3,4-dihydroquinazolin-2-yl)ethyl)amino)pyrimidine-5-carbonitrile] | 4 nM | 4900 nM | 5 nM | – | –
7 | N#Cc1c(N)nc(N)nc1N[C@H](c1nc2c(F)ccc(F)c2c(=O)n1N1CCNCC1)C1CC1 [Compound 127, (S)-2,4-diamino-6-((cyclopropyl(5,8-difluoro-4-oxo-3-(piperazin-1-yl)-3,4-dihydroquinazolin-2-yl)methyl)amino)pyrimidine-5-carbonitrile] | 13 nM | > 10000 nM | 28 nM | – | –
8 | C[C@H](Nc1nc(N)nc(Cl)c1C#N)c1nc2cccc(Cl)c2c(=O)n1C1CCNCC1 [Compound 128, (S)-2-Amino-4-chloro-6-((1-(5-chloro-4-oxo-3-(piperidin-4-yl)-3,4-dihydroquinazolin-2-yl)ethyl)amino)pyrimidine-5-carbonitrile] | 14 nM | > 10000 nM | 10 nM | – | –
9 | C[C@H](Nc1nc(N)nc(N)c1C#N)c1nc2cccc(Cl)c2c(=O)n1N1CCC(N)CC1 [Compound 129, (S)-2,4-diamino-6-((1-(3-(4-aminopiperidin-1-yl)-5-chloro-4-oxo-3,4-dihydroquinazolin-2-yl)ethyl)amino)pyrimidine-5-carbonitrile] | 4 nM | 5000 nM | 120 nM | – | –
10 | C[C@H](Nc1ncnc(N)c1C#N)c1nc2cccc(Cl)c2c(=O)n1N1CCC(N)C1 (stereo partly drawn) [Compound 130, 4-amino-6-(((1S)-1-(3-(3-aminopyrrolidin-1-yl)-5-chloro-4-oxo-3,4-dihydroquinazolin-2-yl)ethyl)amino)pyrimidine-5-carbonitrile] | 1 nM | > 10000 nM | 62 nM | – | –
11 | C[C@H](Nc1ncnc(N)c1C#N)c1nc2cccc(Cl)c2c(=O)n1N1CCC(N)CC1 [Compound 131, (S)-4-amino-6-((1-(3-(4-aminopiperidin-1-yl)-5-chloro-4-oxo-3,4-dihydroquinazolin-2-yl)ethyl)amino)pyrimidine-5-carbonitrile] | 6 nM | > 10000 nM | 450 nM | – | –
12 | C[C@H](Nc1ncnc(N)c1C#Cc1ccc(F)cn1)c1nc2cccc(Cl)c2c(=O)n1C1CNC1 [Compound 132, (S)-2-(1-((6-amino-5-((5-fluoropyridin-2-yl)ethynyl)pyrimidin-4-yl)amino)ethyl)-3-(azetidin-3-yl)-5-chloroquinazolin-4(3H)-one] | 250 nM | > 10000 nM | 1000 nM | – | –
13 | O=c1c2c(Cl)cccc2nc([C@@H]2CCCN2c2ncnn3ccnc23)n1N1CCNCC1 [Compound 133, (S)-5-chloro-2-(1-(imidazo[2,1-f][1,2,4]triazin-4-yl)pyrrolidin-2-yl)-3-(piperazin-1-yl)quinazolin-4(3H)-one] | 75 nM | > 10000 nM | 900 nM | – | –
14 | C[C@H](Nc1ncnc(N)c1C#N)c1nc2cccc(Cl)c2c(=O)n1C1CCN(C2CCN(C)CC2)CC1 [Compound 134, (S)-4-amino-6-((1-(5-chloro-3-(1'-methyl-[1,4'-bipiperidin]-4-yl)-4-oxo-3,4-dihydroquinazolin-2-yl)ethyl)amino)pyrimidine-5-carbonitrile] | 35 nM | > 10000 nM | 2200 nM | – | –
15 | CCN1CCC(n2c([C@H](C)Nc3ncnc4[nH]cnc34)nc3cccc(Cl)c3c2=O)C1 (stereo partly drawn) [Compound 135, 2-((S)-1-((9H-purin-6-yl)amino)ethyl)-5-chloro-3-(1-ethylpyrrolidin-3-yl)quinazolin-4(3H)-one] | 70 nM | > 10000 nM | 4700 nM | – | –
16 | C[C@H](Nc1nc(N)nc(N)c1C#N)c1nc2cccc(Cl)c2c(=O)n1[C@H]1CCOC1 [Compound 136, 2,4-diamino-6-(((S)-1-(5-chloro-4-oxo-3-((S)-tetrahydrofuran-3-yl)-3,4-dihydroquinazolin-2-yl)ethyl)amino)pyrimidine-5-carbonitrile] | 2 nM | 259 nM | 192 nM | – | –
17 | C[C@H](Nc1nc(N)nc(N)c1C#N)c1nc2cccc(Cl)c2c(=O)n1[C@@H]1CCOC1 [Compound 137, 2,4-diamino-6-(((S)-1-(5-chloro-4-oxo-3-((R)-tetrahydrofuran-3-yl)-3,4-dihydroquinazolin-2-yl)ethyl)amino)pyrimidine-5-carbonitrile] | 5 nM | 229 nM | 47 nM | – | –
18 | N#Cc1c(N)nc(N)nc1N[C@H](c1nc2c(Cl)ccc(Cl)c2c(=O)n1C1CCC1)C1CC1 [Compound 138, (S)-2,4-diamino-6-((cyclopropyl(5,8-dichloro-3-cyclobutyl-4-oxo-3,4-dihydroquinazolin-2-yl)methyl)amino)pyrimidine-5-carbonitrile] | 1 nM | 524 nM | 58 nM | – | –
19 | C[C@H](Nc1nc(N)nc(N)c1C#N)c1nc2cccc(Cl)c2c(=O)n1-c1ccccc1 [Compound X, (S)-2,4-diamino-6-((1-(5-chloro-4-oxo-3-phenyl-3,4-dihydroquinazolin-2-yl)ethyl)amino)pyrimidine-5-carbonitrile, reference compound] | 0.2 nM | 7 nM | 11 nM | 0.6 | less than 1 fold
